For one data set, the system named is ALK5. The note with it: structure-activity relationship study of Li et al. ref 16; cited from earlier work.
Data set [1] can be described thus: in vitro. The note with it: human. The procedure: (§1) 5. Methods for In vitro characterizations of HYL001 […]
(§2) Rapid equilibrium dialysis was performed in triplicates with a rapid equilibrium dialysis (RED) by Sai Life Sciences Lt. (Telangana, India). The RED device contains a dialysis membrane with a molecular weight cut -off […]
(§3) of 8,000 Da, separating two chambers for plasma and buffer, respectively. […]
(§4) were added to the plasma chamber, versus phosphate buffer saline (pH 7.4) to the buffer chamber. Dialysis was performed for 4 h with 100 RPM shaking at 37 °C. […]
(§5) compounds in plasma were either frozen immediately (T0 sample), or incubated at 37 °C for 4 h without dialysis (non-dialysed), respectively.
(§6) Following dialysis, an aliquot was removed from either chamber and diluted with equal volume of opposite matrix to nullify the matrix effect. Similarly, buffer was added to recovery and stability samples. Next, acetonitrile (containing internal standard, glipizide) was added to the mixtures for protein precipitation and vortexed for 5 minutes. The samples were centrifuged at 4000 RPM at 4 °C for 10 min and the supernatant was submitted for liquid chromatography mass spectrometry (LC-MS/MS) analysis. Samples were monitored for parent compound using multiple reaction monitoring (MRM) mode.
(§7) The peak area ratios (PAR, analyte versus internal standard) in plasma vs bufffer were used to determine the fraction of compound bound to plasma proteins. The following equation was used to determine the extent of plasma protein binding: percent free drug = 100% x (PARbuffer / PARplasma); percent bound drug = 100 - % free drug. Recovery was calculated as 100% x (PARplasma + PARbuffer)dialysed / (PARplasma)non-dialysed; stability as 100% x (PAR)non-dialysed / (PARplasma)frozen at T0. […]

Data set [2] in a line: in vitro. The note with it: rat. The procedure:
as §1, §2, §3, §4, §5, §6, §7

Data set [3] in a line: in vitro. Particulars: mouse. The procedure: as §1, §2, §3, §4, §5, §6, §7

For `Cc1cccc(-c2nn3c(c2-c2ccnc4ccc(Br)cc24)CCC3)n1` [6-Br, 6-Bromo-4-(2-(6-methylpyridin-2-yl)-5,6-dihydro-4H-pyrrolo[1,2-b]pyrazol-3-yl) Quinoline], in the data set with ALK5, the half-inhibitory concentration (IC50) is 89 nM.

In the case of `CC(=O)CC(c1ccccc1)c1c(O)c2ccccc2oc1=O` (stereo not shown) [Warfarin, reference compound], the recovery at 4 h, 5 µM is 100% in the data set “in vitro [1]” (pH 7.4), 98.6% in the data set “in vitro [2]” (pH 7.4) and 99.9% in the data set “in vitro [3]” (pH 7.4). Further, the “% Compound remaining at 4 hrs” value in “in vitro [1]” (plasma, 4 h, 5 µM) was determined as 84.2%; in “in vitro [2]” (plasma, 4 h, 5 µM), 104.8%; in “in vitro [3]” (plasma, 4 h, 5 µM), 106.2%.

By IC50 is commonly meant the point on the concentration scale where inhibition reaches its midpoint.

Source of the values: PMC11729428, “New Potent Inhibitor of Transforming Growth Factor-Beta (TGFβ) Signaling that is Efficacious against Microsatellite Stable Colorectal Cancer Metastasis in Combination with Immune Checkpoint Therapy in Mice” (ACS Pharmacology & Translational Science, 2024).
